Test results published in article PMC10794144, “A novel antibiotic class targeting the lipopolysaccharide transporter” (Nature, 2024).
In brackets after ≈: the same amount, converted by molar mass. Read-outs that look alike come from different tables or passages of the source.

System: A. baumannii
Assay: microbe, parasite or virus in culture
Conditions: Acinetobacter baumannii, 100%
Procedure, shortened: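 CLSI broth microdilution (M07/M100); inoculum from 0.5 McFarland suspension diluted in CAMHB; MIC = lowest concentration with no visible growth or where OD600 stops falling.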

C[C@@H](O)[C@H]1C(=O)N2C(C(=O)O)=C(S[C@@H]3CN[C@H](C(=O)N(C)C)C3)[C@H](C)[C@H]12 [meropenem, reference compound]
MIC (read-out: MIC 100%, ROB08707, Study ROC012): 32 µg/mL (≈ 83.4 µM) | MIC (read-out: MIC 100%, ROB08707, Study ROC013): 32 µg/mL (≈ 83.4 µM) | MIC (read-out: MIC 100%, ROB08708, Study LGC277937): > 64 µg/mL | MIC (read-out: MIC 100%, ROB08708, Study LGC279800): 32 µg/mL (≈ 83.4 µM) | MIC (read-out: MIC 100%, ROB08708, Study LGC281440): 16 µg/mL (≈ 41.7 µM) | MIC (read-out: MIC 100%, ROB08708, Study LGC282160): 16 µg/mL (≈ 41.7 µM) | MIC (read-out: MIC 100%, ROB08708, Study LGC282623): 32 µg/mL (≈ 83.4 µM) | MIC (read-out: MIC 100%, ROB08708, Study LGC283932): 32 µg/mL (≈ 83.4 µM) | MIC (read-out: MIC 100%, ROB08708, Study LGC284200): 32 µg/mL (≈ 83.4 µM) | MIC (read-out: MIC 100%, ROB08708, Study LGC284879): 32 µg/mL (≈ 83.4 µM) | MIC (read-out: MIC 100%, ROB08708, Study LGC285582): 32 µg/mL (≈ 83.4 µM) | MIC (read-out: MIC 100%, ROB08708, Study LGC286210): 16 µg/mL (≈ 41.7 µM) | MIC (read-out: MIC 100%, ROB08708, Study LGC293598): 16 µg/mL (≈ 41.7 µM) | MIC (read-out: MIC 100%, ROB08708, Study LGC294355): 16 µg/mL (≈ 41.7 µM) | MIC (read-out: MIC 100%, ROB08708, Study LGC295147): 32 µg/mL (≈ 83.4 µM) | MIC (read-out: MIC 100%, ROB08708, Study LGC296813): 32 µg/mL (≈ 83.4 µM) | MIC (read-out: MIC 100%, ROB08708, Study LGC299544): 32 µg/mL (≈ 83.4 µM) | MIC (read-out: MIC 100%, ROB08708, Study LGC301026): 32 µg/mL (≈ 83.4 µM) | MIC (read-out: MIC 100%, ROB08708, Study LGC308175): 64 µg/mL (≈ 167 µM) | MIC (read-out: MIC 100%, ROB08708, Study ROC004): 32 µg/mL (≈ 83.4 µM) | MIC (read-out: MIC 100%, ROB08708, Study ROC005): 16 µg/mL (≈ 41.7 µM) | MIC (read-out: MIC 100%, ROB08708, Study ROC006): 64 µg/mL (≈ 167 µM) | MIC (read-out: MIC 100%, ROB08708, Study ROC007): 16 µg/mL (≈ 41.7 µM) | MIC (read-out: MIC 100%, ROB08708, Study ROC008): 16 µg/mL (≈ 41.7 µM) | MIC (read-out: MIC 100%, ROB08708, Study ROC009): 32 µg/mL (≈ 83.4 µM) | MIC (read-out: MIC 100%, ROB08708, Study ROC010): 16 µg/mL (≈ 41.7 µM) | MIC (read-out: MIC 100%, ROB08708, Study ROC012): 16 µg/mL (≈ 41.7 µM) | MIC (read-out: MIC 100%, ROB08708, Study ROC013): 32 µg/mL (≈ 83.4 µM) | MIC (read-out: MIC 100%, ROB08709, Study LGC277937): 32 µg/mL (≈ 83.4 µM) | MIC (read-out: MIC 100%, ROB08709, Study LGC279800): 32 µg/mL (≈ 83.4 µM) | MIC (read-out: MIC 100%, ROB08709, Study LGC281440): 32 µg/mL (≈ 83.4 µM) | MIC (read-out: MIC 100%, ROB08709, Study LGC282160): 16 µg/mL (≈ 41.7 µM) | MIC (read-out: MIC 100%, ROB08709, Study LGC282623): 32 µg/mL (≈ 83.4 µM) | MIC (read-out: MIC 100%, ROB08709, Study LGC283932): 32 µg/mL (≈ 83.4 µM) | MIC (read-out: MIC 100%, ROB08709, Study LGC284200): 32 µg/mL (≈ 83.4 µM) | MIC (read-out: MIC 100%, ROB08709, Study LGC284879): 32 µg/mL (≈ 83.4 µM) | MIC (read-out: MIC 100%, ROB08709, Study LGC285582): 32 µg/mL (≈ 83.4 µM) | MIC (read-out: MIC 100%, ROB08709, Study LGC286210): 32 µg/mL (≈ 83.4 µM) | MIC (read-out: MIC 100%, ROB08709, Study LGC293598): 32 µg/mL (≈ 83.4 µM) | MIC (read-out: MIC 100%, ROB08709, Study LGC294355): 32 µg/mL (≈ 83.4 µM) | MIC (read-out: MIC 100%, ROB08709, Study LGC295147): 16 µg/mL (≈ 41.7 µM) | MIC (read-out: MIC 100%, ROB08709, Study LGC296813): 16 µg/mL (≈ 41.7 µM) | MIC (read-out: MIC 100%, ROB08709, Study LGC299544): 32 µg/mL (≈ 83.4 µM) | MIC (read-out: MIC 100%, ROB08709, Study LGC301026): 16 µg/mL (≈ 41.7 µM) | MIC (read-out: MIC 100%, ROB08709, Study LGC308175): 32 µg/mL (≈ 83.4 µM) | MIC (read-out: MIC 100%, ROB08709, Study ROC004): 64 µg/mL (≈ 167 µM) | MIC (read-out: MIC 100%, ROB08709, Study ROC005): 16 µg/mL (≈ 41.7 µM) | MIC (read-out: MIC 100%, ROB08709, Study ROC006): 64 µg/mL (≈ 167 µM) | MIC (read-out: MIC 100%, ROB08709, Study ROC007): 16 µg/mL (≈ 41.7 µM) | MIC (read-out: MIC 100%, ROB08709, Study ROC008): 16 µg/mL (≈ 41.7 µM) | MIC (read-out: MIC 100%, ROB08709, Study ROC009): 16 µg/mL (≈ 41.7 µM) | MIC (read-out: MIC 100%, ROB08709, Study ROC010): 16 µg/mL (≈ 41.7 µM) | MIC (read-out: MIC 100%, ROB08709, Study ROC012): 16 µg/mL (≈ 41.7 µM) | MIC (read-out: MIC 100%, ROB08709, Study ROC013): 32 µg/mL (≈ 83.4 µM) | MIC (read-out: MIC 100%, ROB08710, Study LGC277937): 64 µg/mL (≈ 167 µM) | MIC (read-out: MIC 100%, ROB08710, Study LGC279800): 64 µg/mL (≈ 167 µM) | MIC (read-out: MIC 100%, ROB08710, Study LGC281440): 32 µg/mL (≈ 83.4 µM) | MIC (read-out: MIC 100%, ROB08710, Study LGC282160): 64 µg/mL (≈ 167 µM) | MIC (read-out: MIC 100%, ROB08710, Study LGC282623): 32 µg/mL (≈ 83.4 µM) | MIC (read-out: MIC 100%, ROB08710, Study LGC283932): 32 µg/mL (≈ 83.4 µM) | MIC (read-out: MIC 100%, ROB08710, Study LGC284200): 32 µg/mL (≈ 83.4 µM) | MIC (read-out: MIC 100%, ROB08710, Study LGC284879): 32 µg/mL (≈ 83.4 µM) | MIC (read-out: MIC 100%, ROB08710, Study LGC285582): 32 µg/mL (≈ 83.4 µM) | MIC (read-out: MIC 100%, ROB08710, Study LGC286210): 32 µg/mL (≈ 83.4 µM) | MIC (read-out: MIC 100%, ROB08710, Study LGC293598): 32 µg/mL (≈ 83.4 µM) | MIC (read-out: MIC 100%, ROB08710, Study LGC294355): 32 µg/mL (≈ 83.4 µM) | MIC (read-out: MIC 100%, ROB08710, Study LGC295147): 64 µg/mL (≈ 167 µM) | MIC (read-out: MIC 100%, ROB08710, Study LGC296813): 32 µg/mL (≈ 83.4 µM) | MIC (read-out: MIC 100%, ROB08710, Study LGC299544): 64 µg/mL (≈ 167 µM) | MIC (read-out: MIC 100%, ROB08710, Study LGC301026): 32 µg/mL (≈ 83.4 µM) | MIC (read-out: MIC 100%, ROB08710, Study LGC308175): 32 µg/mL (≈ 83.4 µM) | MIC (read-out: MIC 100%, ROB08710, Study ROC004): 32 µg/mL (≈ 83.4 µM) | MIC (read-out: MIC 100%, ROB08710, Study ROC005): 32 µg/mL (≈ 83.4 µM) | MIC (read-out: MIC 100%, ROB08710, Study ROC006): 64 µg/mL (≈ 167 µM) | MIC (read-out: MIC 100%, ROB08710, Study ROC007): 64 µg/mL (≈ 167 µM) | MIC (read-out: MIC 100%, ROB08710, Study ROC008): 32 µg/mL (≈ 83.4 µM) | MIC (read-out: MIC 100%, ROB08710, Study ROC009): 64 µg/mL (≈ 167 µM) | MIC (read-out: MIC 100%, ROB08710, Study ROC010): 32 µg/mL (≈ 83.4 µM) | MIC (read-out: MIC 100%, ROB08710, Study ROC012): 32 µg/mL (≈ 83.4 µM) | MIC (read-out: MIC 100%, ROB08710, Study ROC013): 32 µg/mL (≈ 83.4 µM)
